Each compound was assayed against T1, human recombinant LPA2 expressed in CHO cells (Homo sapiens, UniProt Q9HBW0) (assay: FLIPR calcium mobilization assay, LPA2 antagonism in CHO-hLPA2 cells). Settings: CHO-hLPA2 cells, inhibition of LPA EC80 Ca2+ response, 30 min pre-incubation; read-out: LPA2 IC50.
T1 construct: expressed in transfected cells; host or cells: CHO (CHO-hLPA2 cell line)
Type: cell-based
Description: The effectiveness of compounds of the present invention as LPA2 antagonist can be determined at the human recombinant LPA2 expressed in CHO cells, using a FLIPR assay in 384 well format.
CHO-hLPA2 cell lines are cultured in a humidified incubator at 5% CO2 in DMEM/F-12 (1:1) MIXTURE with 2 mM Glutamax, supplemented with 10% of Foetal Bovine Serum, 1 mM Sodium Pyruvate, 11 mM Hepes and 1× Penicillin/Streptomycin. CHO hLPA2 cells are seeded into black walled clear-bottom 384-well plates (#781091, Greiner Bio-One GmbH) at a density of 7,500 cells per well in 50 μl culture media and grown overnight in a 37° C. humidified CO2-incubator. Serial dilutions (1:3 or 1:4, 11 points CRC) of compounds are performed in 100% DMSO at 200× the final concentration. The compounds are diluted 1:50 prior to the experiment with Assay Buffer (20 mM HEPES, 145 mM NaCl, 5 mM KCl, 5.5 mM glucose, 1 mM MgCl2 and 2 mM CaCl2, pH 7.4 containing 0.01% Pluronic F-127) to obtain a solution corresponding to […] the final concentration in the assay (4×, 2% DMSO). The final concentration of DMSO in the assay will be 0.5% in each well. Medium is removed by aspiration and cells are then incubated with 30 μl of a loading solution containing 5 μM of the cytoplasmic Ca2+ indicator Cal-520 AM in Assay Buffer containing 2.5 mM probenecid for 30 min at 37° C. incubator (cell loading). The loaded cell plates are transferred into the FLIPR instrument and calcium responses are monitored during the on-line addition protocols. For testing of compounds, after the cell loading, 10 μl/well of 4× antagonists' solution was added onto the cells. […] Intracellular peak fluorescence values subtracted by baseline fluorescence are exported and analysed to determine IC50 values, respectively. The calcium response is expressed as percentage of the maximal inhibition of the EC80 agonist response.
The raw data (peak height expressed as relative fluorescence units) are normalized and transformed into “percent of inhibition”. Curve fitting and pIC50 (−Log IC50) estimations are carried out using a four-parameter logistic model using XLfit Software.

T1 sequence (Q9HBW0 whole entry): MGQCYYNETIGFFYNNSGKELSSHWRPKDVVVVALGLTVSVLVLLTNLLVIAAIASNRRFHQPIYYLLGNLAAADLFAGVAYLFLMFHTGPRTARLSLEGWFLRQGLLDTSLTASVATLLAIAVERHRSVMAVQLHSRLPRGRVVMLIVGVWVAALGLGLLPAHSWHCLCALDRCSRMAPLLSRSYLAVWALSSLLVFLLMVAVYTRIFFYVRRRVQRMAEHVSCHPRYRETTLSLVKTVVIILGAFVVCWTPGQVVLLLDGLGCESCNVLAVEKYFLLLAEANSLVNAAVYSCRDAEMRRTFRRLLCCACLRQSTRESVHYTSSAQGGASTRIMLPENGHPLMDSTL

| IC50 | SMILES |
| --- | --- |
| < 1000 nM | COC(=O)Nc1nc(C)c(S(=O)(=O)N2CCN(C[C@H](C)Nc3ncnc4c([N+](=O)[O-])cccc34)CC2)s1 [Example 55, methyl N-[4-methyl-5-({4-[(2S)-2-[(8-nitroquinazolin-4-yl)amino]propyl]piperazin-1-yl}sulfonyl)-1,3-thiazol-2-yl]carbamate] |
| 10 to 100 nM | COC(=O)Nc1nc(C)c(S(=O)(=O)N2CCN(C[C@H](C)Nc3ncnc4c(C(=O)N5CCC[C@@H]5C(F)(F)F)cccc34)CC2)s1 (racemic) [Example 79, methyl N-[4-methyl-5-({4-[(2S)-2-({8-[(2R)-2-(trifluoromethyl)pyrrolidine-1-carbonyl]quinazolin-4-yl}amino)propyl]piperazin-1-yl}sulfonyl)-1,3-thiazol-2-yl]carbamate] |
| 10 to 100 nM | COC(=O)c1cccc2c(N[C@@H](C)CN3CCN(S(=O)(=O)c4ccc(-c5ccno5)s4)CC3)ncnc12 [Example 16, methyl 4-{[(2S)-1-(4-{[5-(1,2-oxazol-5-yl)thiophen-2-yl]sulfonyl}piperazin-1-yl)propan-2-yl]amino}quinazoline-8-carboxylate] |
| 10 to 100 nM | Cc1n[nH]c(-c2ccc(S(=O)(=O)N3CCN(C[C@H](C)Nc4ncnc5c(C(F)(F)F)cccc45)CC3)o2)c1C [Example 56, N-[(2S)-1-(4-{[5-(3,4-dimethyl-1H-pyrazol-5-yl)furan-2-yl]sulfonyl}piperazin-1-yl)propan-2-yl]-8-(trifluoromethyl)quinazolin-4-amine] |
| 10 to 100 nM | COC(=O)Nc1nc(C)c(S(=O)(=O)N2CCN(C[C@H](C)Nc3ncnc4c(C(=O)N5CCC[C@@H]5C)cccc34)CC2)s1 (racemic) [Example 82, methyl N-[4-methyl-5-({4-[(2S)-2-({8-[(2S)-2-methylpyrrolidine-1-carbonyl]quinazolin-4-yl}amino)propyl]piperazin-1-yl}sulfonyl)-1,3-thiazol-2-yl]carbamate] |
| < 1000 nM | COC(=O)Nc1nc(C)c(S(=O)(=O)N2CCN(C[C@H](C)Nc3ncnc4c(C(=O)N5CCC[C@H]5C(F)(F)F)cccc34)CC2)s1 (racemic) [Example 84, methyl N-[4-methyl-5-({4-[(2S)-2-({8-[(2S)-2-(trifluoromethyl)pyrrolidine-1-carbonyl]quinazolin-4-yl}amino)propyl]piperazin-1-yl}sulfonyl)-1,3-thiazol-2-yl]carbamate] |
| < 10 nM | Cc1cc(-c2ccc(S(=O)(=O)N3CCN(C[C@H](C)Nc4ncnc5c(N(C)C)cccc45)CC3)s2)on1 [Example 96, N8,N8-dimethyl-N4-[(2S)-1-(4-{[5-(3-methyl-1,2-oxazol-5-yl)thiophen-2-yl]sulfonyl}piperazin-1-yl)propan-2-yl]quinazoline-4,8-diamine] |
| < 1000 nM | CC(=O)Nc1cc(F)c(S(=O)(=O)N2CCN(C[C@H](C)Nc3ncnc4c(C(F)(F)F)cccc34)CC2)cc1Cl [Example 42, N-[2-chloro-5-fluoro-4-({4-[(2S)-2-{[8-(trifluoromethyl)quinazolin-4-yl]amino}propyl]piperazin-1-yl}sulfonyl)phenyl]acetamide] |
| 10 to 100 nM | COC(=O)c1cccc2c(N[C@@H](C)CN3CCN(S(=O)(=O)c4cnc(-c5ccccc5)s4)CC3)ncnc12 [Example 12, methyl 4-{[(2S)-1-{4-[(2-phenyl-1,3-thiazol-5-yl)sulfonyl]piperazin-1-yl}propan-2-yl]amino}quinazoline-8-carboxylate] |
| 10 to 100 nM | C[C@@H](CN1CCN(S(=O)(=O)c2cc(-c3ccno3)cs2)CC1)Nc1ncnc2c(C(F)(F)F)cccc12 [Example 71, N-[(2S)-1-(4-{[4-(1,2-oxazol-5-yl)thiophen-2-yl]sulfonyl}piperazin-1-yl)propan-2-yl]-8-(trifluoromethyl)quinazolin-4-amine] |
| < 1000 nM | COCC(=O)Nc1ncc(S(=O)(=O)N2CCN(C[C@H](C)Nc3ncnc4c(C(F)(F)F)cccc34)CC2)s1 [Example 24, 2-methoxy-N-[5-({4-[(2S)-2-{[8-(trifluoromethyl)quinazolin-4-yl]amino}propyl]piperazin-1-yl}sulfonyl)-1,3-thiazol-2-yl]acetamide] |
| 10 to 100 nM | COC(=O)Nc1nc(C)c(S(=O)(=O)N2CCN(C[C@H](C)Nc3ncnc4c(C(=O)OC)cccc34)CC2)s1 [Example 17, methyl 4-{[(2S)-1-[4-({2-[(methoxycarbonyl)amino]-4-methyl-1,3-thiazol-5-yl}sulfonyl)piperazin-1-yl]propan-2-yl]amino}quinazoline-8-carboxylate] |
| 10 to 100 nM | COC(=O)N(C)c1nc(C)c(S(=O)(=O)N2CCN(C[C@H](C)Nc3ncnc4c(C(F)(F)F)cccc34)CC2)s1 [Example 89, methyl N-methyl-N-[4-methyl-5-({4-[(2S)-2-{[8-(trifluoromethyl)quinazolin-4-yl]amino}propyl]piperazin-1-yl}sulfonyl)-1,3-thiazol-2-yl]carbamate] |
| < 10 nM | Cc1noc(-c2ccc(S(=O)(=O)N3CCN(C[C@H](C)Nc4ncnc5c(C(=O)N6CCC[C@@H]6C(F)(F)F)cccc45)CC3)s2)c1C (racemic) [Example 76, N-[(2S)-1-(4-{[5-(3,4-dimethyl-1,2-oxazol-5-yl)thiophen-2-yl]sulfonyl}piperazin-1-yl)propan-2-yl]-8-[(2R)-2-(trifluoromethyl)pyrrolidine-1-carbonyl]quinazolin-4-amine] |
| < 10 nM | Cc1noc(-c2ccc(S(=O)(=O)N3CCN(C[C@H](C)Nc4ncnc5c(C(=O)N(C)C)cccc45)CC3)s2)c1C [Example 43, 4-{[(2S)-1-(4-{[5-(3,4-dimethyl-1,2-oxazol-5-yl)thiophen-2-yl]sulfonyl}piperazin-1-yl)propan-2-yl]amino}-N,N-dimethylquinazoline-8-carboxamide] |
| < 1000 nM | CC(=O)Nc1ccc(S(=O)(=O)N2CCN(C[C@H](C)Nc3ncnc4c(C(F)(F)F)cccc34)CC2)s1 [Example 90, N-[5-({4-[(2S)-2-{[8-(trifluoromethyl)quinazolin-4-yl]amino}propyl]piperazin-1-yl}sulfonyl)thiophen-2-yl]acetamide] |
| < 10 nM | Cc1noc(-c2ccc(S(=O)(=O)N3CCN(C[C@H](C)Nc4ncnc5c(C(=O)N6CCC[C@H]6C(F)(F)F)cccc45)CC3)s2)c1C (racemic) [Example 69, N-[(2S)-1-(4-{[5-(3,4-dimethyl-1,2-oxazol-5-yl)thiophen-2-yl]sulfonyl}piperazin-1-yl)propan-2-yl]-8-[(2S)-2-(trifluoromethyl)pyrrolidine-1-carbonyl]quinazolin-4-amine] |
| 10 to 100 nM | Cc1cc(-c2ncc(S(=O)(=O)N3CCN(C[C@H](C)Nc4ncnc5c(C(F)(F)F)cccc45)CC3)s2)on1 [Example 63, N-[(2S)-1-(4-{[2-(3-methyl-1,2-oxazol-5-yl)-1,3-thiazol-5-yl]sulfonyl}piperazin-1-yl)propan-2-yl]-8-(trifluoromethyl)quinazolin-4-amine] |
| 10 to 100 nM | Cc1noc(-c2ccc(S(=O)(=O)N3CCN(C[C@H](C)Nc4ncnc5c(OC(F)F)cccc45)CC3)s2)c1C [Example 4, 8-(difluoromethoxy)-N-[(2S)-1-(4-{[5-(3,4-dimethyl-1,2-oxazol-5-yl)thiophen-2-yl]sulfonyl}piperazin-1-yl)propan-2-yl]quinazolin-4-amine] |
| < 1000 nM | C[C@@H](CN1CCN(S(=O)(=O)c2ccc(-c3ccno3)o2)CC1)Nc1ncnc2c(C(F)(F)F)cccc12 [Example 54, N-[(2S)-1-(4-{[5-(1,2-oxazol-5-yl)furan-2-yl]sulfonyl}piperazin-1-yl)propan-2-yl]-8-(trifluoromethyl)quinazolin-4-amine] |
| < 1000 nM | COCc1nc(N[C@@H](C)CN2CCN(S(=O)(=O)c3ccc(-c4onc(C)c4C)s3)CC2)c2cccc(C(F)(F)F)c2n1 [Example 61, N-[(2S)-1-(4-{[5-(3,4-dimethyl-1,2-oxazol-5-yl)thiophen-2-yl]sulfonyl}piperazin-1-yl)propan-2-yl]-2-(methoxymethyl)-8-(trifluoromethyl)quinazolin-4-amine] |

| SMILES | IC50 |
| --- | --- |
| Cc1cc(-c2ccc(S(=O)(=O)N3CCN(C[C@H](C)Nc4ncnc5c(OC(=O)N(C)C)cccc45)CC3)s2)on1 [Example 91, 4-{[(2S)-1-(4-{[5-(3-methyl-1,2-oxazol-5-yl)thiophen-2-yl]sulfonyl}piperazin-1-yl)propan-2-yl]amino}quinazolin-8-yl N,N-dimethylcarbamate] | 10 to 100 nM |

Same assay, conditions: same in vitro assay as Table 2; read-out: IC50 on LPA2 receptor

| IC50 | SMILES |
| --- | --- |
| > 3000 nM | COC(=O)Nc1nc(C)c(S(=O)(=O)N2CCN(C[C@H](C)Nc3ncnc4ncccc34)CC2)s1 [comparative Example A, Methyl (S)-(4-methyl-5-((4-(2-(pyrido[2,3-d]pyrimidin-4 ylamino)propyl)piperazin-1-yl)sulfonyl)thiazol-2-yl)carbamate, reference compound] |

Source: patent publication US12404270B2, “Quinazoline derivatives as LPA receptor 2 inhibitors” (CHIESI FARMACEUTICI S.P.A., priority 2019, dated 2025)
